Patent US20030134398A1, “Mitomycin biosynthetic gene cluster” (priority 2001, published 2003)
Several values for one entry are separate records, joined by “and”; a condition that tells them apart may be missing. Identical values can stand only once. Like-named read-outs stand apart in the source and are kept apart here.

What was measured:
[1] = tested on: C[S+](CC[C@H](N)C(=O)O)C[C@H]1O[C@@H](n2cnc3c(N)ncnc32)[C@H](O)[C@@H]1O; assay: purified protein, by the assay type
MitM [2] = biological target: T1, MitM (Streptomyces lavendulae, UniProt Q9X5Q9); assay: Enzyme assay and kinetic measurement, aziridine N-methyltransferase (Example 5); type: biochemical, S. lavendulae; details: for conversion of candidate substrate by MitM: in the presence of SAM, TLC/HPLC
Experimental: (§1) pDHS7801 and pDHS7802 were transforned into E. coli BL21 (DE3) strain for the overexpression of MitM and MitN, respectively. E. coli cells were grown at 37° C. in NZCM broth containing 50 μg/ml kanamycin until OD600=0.6. Expression of MitM (or MitN) was induced by adding IPTG to a final concentration of 0.1 mM and reducing the temperature to 25° C. After incubating the culture overnight, cells were harvested, suspended in ice-cooled lysis buffer (50 mM NaH2PO4, pH 8.0; 300 mM NaCl; 10 mM imidazole), and lysed by sonication (6×10 seconds with 10 second pauses at 200-300 W). The supernatant collected by centrifuging the lysate at 10,000 g at 4° C. was used to pass through a Qiagen Ni-NTA column as specified by the manufacturer. The column was […] twice with wash buffer (50 mM NaH2PO4, pH 8.0; 300 mM NaCl; 20 mM imidazole) followed by dissolving the protein in elution buffer (50 mM NaH2PO4, pH 8.0; 300 mM NaCl; 250 mM imidazole). The protein eluted from the column was then precipitated with 60% ammonia sulfate, desalted by passing through a Pharmacia PD-10 column, and dissolved in 50 mM pH7.4 potassium buffer with 1 mM PMSF. The protein concentration was determined using the Bradford Assay with BSA as the standard.
(§2) The reactions were incubated at 30° C. for 30 minutes and were terminated by twice equal volume of ethyl acetate extraction.
(§3) The calculations were carried out using Kcat computer program by fitting the data to a Michaelis-Menton equation by linear regression.

MitN = MitN (Streptomyces lavendulae, UniProt Q9X5Q8); assay: as above; type: biochemical, S. lavendulae; details: for conversion of candidate substrate by MitN: in the presence of SAM, TLC/HPLC
Experimental: as §1, §2, §3

MitM [3] = biological target: T1, MitM; type: biochemical, S. lavendulae; details: Example 4; with SAM
[4] = tested on: 31-O-desmethylimmunomycin O-methyltransferase (DIMT); details: read-out: Km for SAM; cited from earlier work
[5] = biological target: demethylmacrocin O-methyltransferase (DMOMT) (Streptomyces fradiae, UniProt Q9ZHQ4); details: read-out: Km for SAM; cited from earlier work
[6] = biological target: macrocin O-methyltransferase (MOMT) (Streptomyces fradiae, UniProt Q9S4D5); details: read-out: Km for SAM; cited from earlier work
[7] = biological target: carminomycin O-methyltransferase (CMT) (Streptomyces sp., UniProt Q55216); details: read-out: Km for SAM; cited from earlier work
[8] = biological target: 31-O-demethylFK506 O-methyltransferase (FKMT) (Streptomyces tacrolimicus, UniProt P74838); details: read-out: Km for SAM; cited from earlier work
[9] = tested on: E. coli strain PJS100 (mrd expressing); assay: MC resistance phenotype of E. coli, plate count; type: cell-based
Excerpt: MC resistance phenotppe of E. coli.

[10] = tested on: E. coli strain PJS103 (mct-mrd co-expressing)
Experimental: Construction of mct-mrd co-expression plasmid. […] The fragment contained the mrd gene under the control of the T7 promoter, including transcriptional terminator sequences (rrnB T1) upstream and downstream of mrd.
(§4) The cultures were grown overnight at 37° C. and colony-forming units (CFUs) were determined.

[11] = tested on: E. coli strain PJS102 (mct expressing); assay: MC resistance phenotype of E. coli, plate count; type: cell-based
Experimental: Construction of mct expression plasmid. For the construction of the E. coli expression plasmid NdeI and HindIII sites were introduced at the translational start codon and downstream of the translational stop codon of mct, respectively. […] The PCR was carried out using 2.5 U of Taq polymerase, 0.4 μg of each primer, 1 μg of pDHS7661 DNA as template, […] each of dATP-dGTP-dCTP-dTTP, 1.5 mM MgCl2, and 10 μl of 10×Promega PCR buffer in a total volume of 100 μl .
as §4

[12] = tested on: E. coli BL21 (DE3)::pET17b (vector control)
Experimental: as §4

S. lavendulae wild-type = assay: Resistance of S. lavendulae strains to MC, plate count; type: cell-based, Streptomyces lavendulae
Excerpt: To establish a physiological role for MCT in S. lavendulae, the corresponding gene (mct) was inactivated by insertion of the aphII gene from transposon Tn5 to give pDHS7704.

E. coli strain PJS100 = assay: [^3H]-MC uptake assay; type: cell-based; details: at 30 minutes
Experimental: (§5) [^3H]-MC uptake assay of strains PJS102 and PJS103. [^3H]-MC was obtained from Kyowa Hakko Kogyo, Ltd. Uptake studies were performed for whole cells of PJS100, PJS102, PJS103 and E. coli BL21 (DE3)::pT7SC and pET17b. PJS100, PJS102, and PJS103 as well as vectoronly cultures were cultured (37° C.) in 5 ml of NCZYM medium with IPTG added to a final concentration of 1 mM (at approximately 3 hours growth). At 9 hours (late exponential phase), cells were harvested by centrifugation and resuspended in 1 ml NCZYM broth (5×concentration). The concentrated suspension of late-exponential growth phase cells was exposed to [^3H]-MC (59 Ci/mmol) at a final concentration of 0.022 μg/ml (0.0655 nmol). Aliquots (100 μl) were removed at frequent intervals, placed on […] GF/C filters (Whatman International, Maidstone, U.K.) and washed once with 6 ml of 0.85% NaCl poured over the filters under vacuum pressure. Additional aliquots were simultaneously removed for determination of protein content (protein assay kit, Bio-Rad Laboratories, Richmond, Calif.). Radioactivity on the filters was quantified using a Beclkan LS7000 scintillation counter. Results were expressed as nanograins of mitomycin per milligram of cell protein.
(§6) MC uptake by E. coli cells expressing mct, mrd or mct/mrd. Since the deduced amino acid sequence of the mct gene was similar to antibiotic export proteins, reduced accumulation of MC in MCT-expressing cells would be expected. An assay, modeled after experiments used to study tetracycline efflux-mediated resistance in E. coli (Levy and McMurry, 1978), was designed to study the uptake of [^3H]-MC by the susceptible vector control and resistant mct, mrd and mct/mrd expressing E. coli strains.

E. coli strain PJS102 = assay: [^3H]-MC uptake assay; type: cell-based; details: at 5 minutes; [^3H]-MC 0.022 μg/ml
Experimental: as §5, §6

[13] = tested on: E. coli BL21(DE3)::pET17b vector control strain; assay: [^3H]-MC uptake assay; type: cell-based; details: [^3H]-MC 0.022 μg/ml
Experimental: as §5, §6

E. coli strain PJS103 = assay: [^3H]-MC uptake assay; type: cell-based
Experimental: as §5, §6

MitM (Streptomyces lavendulae)
Km ([1]; other: MitM, 400 μM mitomycin A, pH 7.0): 30 µM | Km ([1]; other: MitM, pH 7.4, MA fixed 200 μM, SAM 40-400 μM, pH 7.4): 22.8 µM and 23 µM

COC1=C(C)C(=O)C2=C(C1=O)[C@@H](COC(N)=O)[C@@]1(OC)[C@H]3N[C@H]3CN21 [MA, mitomycin A]
Vmax for MA (MitM [2]; MitM, pH 7.4, SAM fixed 200 μM): 57.4 ± 4.2 nmol/mg/min | conversion of candidate substrate by MitM (MitM [2]): new product was formed | Km (MitM [2]; read-out: Km for MA, MitM, pH 7.4, SAM fixed 200 μM, MA 30-300 μM): 169 µM | Vmax for MA (MitN; MitN, pH 7.4, SAM fixed 200 μM): 75.9 ± 2.4 nmol/mg/min | conversion of candidate substrate by MitN (MitN): new product was formed | Km (MitN; read-out: Km for MA, MitN, pH 7.4, SAM fixed 200 μM, MA 30-300 μM): 94.7 µM and 95 µM | enzymatic conversion (methylation) by MitM (MitM [3]): methylated at the aziridine nitrogen

C[S+](CC[C@H](N)C(=O)O)C[C@H]1O[C@@H](n2cnc3c(N)ncnc32)[C@H](O)[C@@H]1O (stereo partly drawn) [SAM, S-adenosyl-L-methionine]
Km [4]: 13 µM | Km [5]: 111 µM | Km [6]: 23 µM | Vmax for SAM (MitM [2]; MitM, pH 7.4, MA fixed 200 μM): 29.8 ± 4.5 nmol/mg/min | Vmax for SAM (MitN; MitN, pH 7.4, MA fixed 200 μM): 49.4 ± 5.3 nmol/mg/min | Km [7]: 25 µM | Km [8]: 28 µM

mitomycin G
enzymatic conversion (methylation) by MitM (MitM [3]): no conversion products were observed

C=C1C2=C(C(=O)C(C)=C(OC)C2=O)N2C[C@H]3[C@H](N3C)[C@]12O (stereo partly shown) [MH, mitomycin H]
conversion of candidate substrate by MitM (MitM [2]): no conversions were detected | conversion of candidate substrate by MitN (MitN): no conversions were detected

COC1=C(C)C(=O)C2=C(C1=O)[C@H](COC(N)=O)[C@@]1(O)[C@@H]3[C@H](CN21)N3C (stereo partly shown) [Mitomycin B, mitomycin B]
Plate count CFU/ml ([9]; Mitomycin B tested at a concentration of 1.0 μg/ml): >10^7b CFU/ml | conversion of candidate substrate by MitM (MitM [2]): no conversions were detected | conversion of candidate substrate by MitN (MitN): no conversions were detected | enzymatic conversion (methylation) by MitM (MitM [3]): no conversion products were observed | resistance of strain PJS103 to mitomycin B [10]: high-level resistance | Plate count CFU/ml ([10]; Mitomycin B tested at a concentration of 15 μg/ml): >10^7d CFU/ml

MitN (Streptomyces lavendulae)
Km ([1]; other: MitN, pH 7.4, MA fixed 200 μM, SAM 40-400 μM, pH 7.4): 86.6 µM and 87 µM

CC1=C(N)C(=O)C2=C(C1=O)N1C[C@H]3[C@H](N3C)[C@]1(O)[C@H]2COC(N)=O (stereo partly shown) [MD, mitomycin D]
conversion of candidate substrate by MitM (MitM [2]): no conversions were detected | conversion of candidate substrate by MitN (MitN): no conversions were detected | enzymatic conversion (methylation) by MitM (MitM [3]): no conversion products were observed

COC1=C(C)C(=O)C2=C(C1=O)[C@@H](COC(N)=O)[C@H]1[C@H]3N[C@H]3CN21 [9a-demethoxy mitomycin A]
enzymatic conversion (methylation) by MitM (MitM [3]): methylate specifically the aziridine nitrogen

CO[C@@]12[C@H](COC(N)=O)C3=C(C(=O)C(C)=C(N)C3=O)N1C[C@@H]1N[C@@H]12 [MC, mitomycin C]
Plate count CFU/ml ([9]; MC 1.0 μg/ml): 3.3 × 10^6 CFU/ml | Plate count CFU/ml ([9]; MC 5.0 μg/ml): 2.7 × 10^6 CFU/ml | Plate count CFU/ml ([9]; MC 10 μg/ml): 6.1 × 10^5 CFU/ml | Plate count CFU/ml ([9]; MC 20 μg/ml): 2.5 × 10^5 CFU/ml | Plate count CFU/ml ([9]; MC 30 μg/ml): 5.0 × 10^2 CFU/ml | Plate count CFU/ml ([9]; MC 60 μg/ml): 0.0 CFU/ml | Plate count CFU/ml ([11]; MC 0.5 μg/ml): 2.1 × 10^5 CFU/ml | Plate count CFU/ml ([11]; MC 1.0 μg/ml): 5.9 × 10^4 CFU/ml | Plate count CFU/ml ([11]; MC 2.5 μg/ml): 2.0 × 10^2 CFU/ml | Plate count CFU/ml ([11]; MC 5.0 μg/ml): 0.0 CFU/ml | conversion of candidate substrate by MitM (MitM [2]): no conversions were detected | conversion of candidate substrate by MitN (MitN): no conversions were detected | enzymatic conversion (methylation) by MitM (MitM [3]): no conversion products were observed | Plate count CFU/ml ([12]; MC 0.01 μg/ml): >10^7 CFU/ml | Plate count CFU/ml ([12]; MC 0.1 μg/ml): 7.3 × 10^3 CFU/ml | Plate count CFU/ml ([12]; MC 0.5 μg/ml): 3.2 × 10^2 CFU/ml | Plate count CFU/ml ([12]; MC 1.0 μg/ml): 0.0 CFU/ml | Plate count CFU/ml ([10]; MC 80 μg/ml): 1.4 × 10^5 CFU/ml | Plate count CFU/ml ([10]; MC 100 μg/ml): 9.6 × 10^3 CFU/ml | Plate count CFU/ml ([10]; MC 150 μg/ml): 3.0 × 10^1 CFU/ml | MC resistance level of the wild-type S. lavendulae (S. lavendulae wild-type): > 150 μg(ml | Plate count CFU/ml (S. lavendulae wild-type; MC 40 μg/ml): 5.3 × 10^3 CFU/ml | Plate count CFU/ml (S. lavendulae wild-type; MC 100 μg/ml): 2.0 × 10^3 CFU/ml | MC accumulation, % higher than the drug-sensitive vector control (E. coli strain PJS100): 42% | MC accumulation as % of the susceptible control (E. coli strain PJS102): 25% | time at which MC accumulation reaches maximum level [13]: 5 min | MC accumulation as % of E. coli cells bearing vector alone (E. coli strain PJS103; at 5 minutes, [^3H]-MC 0.022 μg/ml): 35% | MC accumulation, % greater than strain PJS102 (E. coli strain PJS103; over the course of the experiment): about 23%
